{"source": "patent US20240252472A1", "about": "“COMBINATIONS FOR TREATING CANCER” (Purdue Pharma L.P., priority 2023, published 2024)", "key": {"[1]": {"system": "MM cell lines (MM.1S, RPMI-8226, MOLP-8)", "test": "Daratumumab-mediated ADCC on pre-treated MM cells", "assay_type": "cell-based, human", "conditions": "pre-treatment 2.5 μM 48 hours, NK cells 1:1 + daratumumab 1 μg/mL, 4 hours, vs DMSO-pretreated", "procedure": "ADCC, CDC and apoptosis via cross-linking To assess the effect of tinostamustine pre-treatment on cytotoxic mechanisms mediated by daratumumab, MM cell lines were first incubated in presence of tinostamustine (2.5 μM) or DMSO for 48 hours. Cells were then washed to remove tinostamustine or DMSO from the culture medium, and the corresponding cytotoxic assay (ADCC, CDC or apoptosis via cross-linking) was performed.\nFor the evaluation of ADCC, tinostamustine or DMSO pre-treated cells were cocultured with NK cells obtained from healthy donors in the presence of daratumumab (1 μg/ml) or the corresponding isotype control for 4 hours (ratio 1:1). Briefly, peripheral blood mononuclear cells (PBMCs) were isolated from healthy donor buffy coats by Lymphoprep density gradient centrifugation. […] In all three assays, the cytotoxic effect on MM cells was evaluated by flow cytometry with Annexin V/7AAD staining after treatment with daratumumab. […]\nMM cells (MM1.S, RPMI-8226, MOLP-8 cells pre-treated with 0 or 2.5 μM EDO-S101 in accordance with the methods outlined above) were co-cultured with NK-cells (ratio 1:1), in the presence of daratumumab (1 μg/mL) or the corresponding isotype control, for 4 hours at 37° C. […] ADCC was then evaluated using flow cytometry in accordance with the methods outlined above, using the following panel: CD38me-FITC/AnnexinV-PE/7AAD/CD45-APC."}, "[2]": {"system": "subcutaneous plasmacytoma derived from MM.1S cells", "test": "First subcutaneous plasmacytoma model, NSG mice with human NK cells", "assay_type": "in vivo", "conditions": "EDO-S101 30 mg/kg i.v. weekly, daratumumab 8 mg/kg i.p. weekly, 4 weeks; vehicle 30 days", "procedure": "For the first subcutaneous human plasmacytoma model, NSG mice (Charles River Laboratories, Wilmington, MA, USA) were subcutaneously inoculated into the right flank with 3×10^6 MM1S in 100 μL RPMI 1640 medium and 100 μL of Matrigel (BD Biosciences). When tumors developed, mice were injected with human NK cells isolated from buffy coats from healthy donors and randomized (4 mice/group) to receive: EDO-S101 (30 mg/kg, iv weekly), daratumumab (8 mg/kg, ip weekly), a combination thereof, or vehicle (PBS vehicle solution with 15% HPBCD, 1.5% acetic acid, and 1.25% NaHCO3). Both, NK cells and the treatments were administered over four consecutive weeks. Caliper measurements of the tumor diameters were performed three times a week, and the tumor volume was estimated as the volume of a 3D ellipse using the following formula: V=4/3π×(a/2)×(b/2)^2, where “a” and “b” correspond to the longest and shortest diameter, respectively. Animals were killed when their tumors reached 2 cm. Differences in tumor volumes between control and treated groups were evaluated using one-way analysis of variance and Dunn's post-hoc tests. […]"}, "[3]": {"system": "subcutaneous plasmacytoma derived from MM1.S cells", "test": "Second subcutaneous plasmacytoma model, CB17-SCID mice", "assay_type": "in vivo", "conditions": "EDO-S101 30 mg/kg i.v. weekly, daratumumab 8 mg/kg i.p. weekly, 4 weeks; vehicle 34 days", "text": "For the second subcutaneous human plasmacytoma model, CB17-SCID mice (The Jackson Laboratory) were used. CB17-SCID mice were randomised into groups (n=5). The design of the experiment (treatment doses and time schedule) was identical to the experiment described above with NSG mice except for the inoculation of NK cells, since CB17-SCID mice have their own functional NK cells.\nFor the second subcutaneous human plasmacytoma model, CB17-SCID mice (20 female mice, 5-6 weeks old; from The Jackson Laboratory) were used. The design of the experiment (treatment doses and time schedule) was identical to the one performed with NSG mice except for the inoculation of human NK cells, since CB17-SCID mice hold their own functional NK cells (Dorshkind et al., J Immunol 134:3798-3801, 1985).\nIn the second xenograft plasmacytoma model, CB17-SCID mice bearing a subcutaneous plasmacytoma derived from MM1.S cells were randomized to receive vehicle, daratumumab, EDO-S101 or the double combination. Mice were treated with EDO-S101 on Mondays and daratumumab was administered on Tuesdays. […] Furthermore, statistical differences in survival were also found between the combination vs vehicle (58 days±2.739 vs 34 days±2.191 days, respectively; p=0.003)."}}, "data": [{"smiles": "Cn1c(CCCCCCC(=O)NO)nc2cc(N(CCCl)CCCl)ccc21", "note": "[EDO-S101, 7-(5-(bis(2-chloroethyl)amino)-1-methyl-1H-benzo[d]imidazol-2-yl)-N-hydroxyheptanamide]", "values": [{"measurement": "percentage of dead myeloma cells, daratumumab-mediated ADCC", "setting": "[1]", "result": "significantly enhanced"}, {"measurement": "percentage of dead myeloma cells, daratumumab-mediated ADCC", "setting": "[1]; listed as tinostamustine", "result": "higher"}, {"measurement": "median survival", "setting": "[2]", "result": 48, "unit": "days"}, {"measurement": "overall median survival", "setting": "[3]", "result": 51, "unit": "days"}]}]}
